Read-outs that look alike come from different tables or passages of the source.
Columns and labels:
HCT 116 = assay: SRB cell proliferation assay, HCT 116; type: cell-based; conditions: Homo sapiens
Description: (§1) We observed the surprising finding that compounds of the invention were useful in inhibiting proliferation of tumor cell lines (see Table 3).
(§2) Cells were exposed to the test compounds at various concentrations appropriate to determine an IC50 for 72 hours. Cell proliferation was measured using the SRB assay according to Shekan et al (J Natl Cancer Inst (1990) 82, 1107-112) in order to estimate the IC50 values shown in Table 3. Briefly, cells were plated in 96 well dishes 24 hours prior to compound addition at the densities specified in Table 5.1. The assay was terminated with the addition of cold TCA to a final concentration of 10% after growth medium has been removed and the plates were incubated over night at 4°C. The plates were then washed 5 times with water and 100µl of a Sulforhodamine B solution (4%) was added to each well. The plates were then incubated for 10 minutes at room temperature before removal of unbound dye by washing with 1% acetic acid. The bound dye was solubilised with 10 mM Trizma base and the absorbance read at OD520.
(§3) Inhibitory activity of the compounds (IC) was calculated as % inhibition of cell proliferation compared to cells treated with the solvent (DMSO).
(§4) Table 8.1: 18-Cell Line Panel

HT-29 = assay: SRB cell proliferation assay, HT-29; type: cell-based; conditions: Homo sapiens
Description: as §1, §2, §3, §4

IMR-90 = assay: SRB cell proliferation assay, IMR-90; type: cell-based; conditions: Homo sapiens
Description: as §1, §2, §3, §4

A-431 = assay: SRB cell proliferation assay, A-431; type: cell-based; conditions: Homo sapiens, 18-Cell Line Panel, skin
Description: as §2, §4

A549 = assay: SRB cell proliferation assay, A549; type: cell-based; conditions: Homo sapiens, 18-Cell Line Panel, lung
Description: as §2, §4

ACHN = assay: SRB cell proliferation assay, ACHN; type: cell-based; conditions: Homo sapiens, 18-Cell Line Panel, kidney
Description: as §2, §4

DU 145 = assay: SRB cell proliferation assay, DU 145; type: cell-based; conditions: Homo sapiens, 18-Cell Line Panel, prostate, read-out: IC50 DU145
Description: as §2, §4

MDA-MB-468 = assay: SRB cell proliferation assay, MDA-MB-468; type: cell-based; conditions: 18-Cell Line Panel; breast
Description: as §2, §4

NCI-H460 = assay: SRB cell proliferation assay, NCI-H460; type: cell-based; conditions: Homo sapiens, 18-Cell Line Panel, NSCLC
Description: as §2, §4

OVCAR-3 = assay: SRB cell proliferation assay, OVCAR-3; type: cell-based; conditions: Homo sapiens, 18-Cell Line Panel, ovary
Description: as §2, §4

PC-3 = assay: SRB cell proliferation assay, PC-3; type: cell-based; conditions: Homo sapiens, 18-Cell Line Panel, prostate
Description: as §2, §4

SW620 = assay: SRB cell proliferation assay, SW620; type: cell-based; conditions: Homo sapiens, SW-620; 18-Cell Line Panel; colon
Description: as §2, §4

A-375 = assay: SRB cell proliferation assay, A-375; type: cell-based; conditions: Homo sapiens, 18-Cell Line Panel, melanoma
Description: as §2, §4

HeLa = assay: SRB cell proliferation assay, HeLa; type: cell-based; conditions: Homo sapiens, 18-Cell Line Panel, cervix
Description: as §2, §4

MDA-MB-231 = assay: SRB cell proliferation assay, MDA-MB-231; type: cell-based; conditions: Homo sapiens, 18-Cell Line Panel, breast
Description: as §2, §4

SK-MEL-28 = assay: SRB cell proliferation assay, SK-MEL-28; type: cell-based; conditions: Homo sapiens, 18-Cell Line Panel, melanoma
Description: as §2, §4

SK-MEL-5 = assay: SRB cell proliferation assay, SK-MEL-5; type: cell-based; conditions: Homo sapiens, 18-Cell Line Panel, melanoma
Description: as §2, §4

COLO 205 = assay: SRB cell proliferation assay, COLO 205; type: cell-based; conditions: Homo sapiens, 18-Cell Line Panel, colon
Description: as §2, §4

[1] = test system: Abl, Akt1, Aur A, c-Kit, c-Raf, Cdk1/CycB, Chk1, FGFR3, Flt3, Fyn, IGF1-R, INSR, Lyn, MAPK-ERK1, p38a, PAK4, PKCalpha, Ret, ROCK2, RSK 1, c-Src, TIE2, and …; assay: Selectivity panel (Proteros), 23 other kinases; type: biochemical; conditions: tested at 1 mM in triplicates; each of the 23 other kinases
Description: Selected compound of the present invention were tested in a standard selectivity panel including Plk1 and 23 other kinases (Proteros biostructures GmbH, Martinsried/Munich, Germany), under conditions of non-disclosure, non-dissemination and non-use.
In brief, compounds 1, 13, 14, and 25 (see Table 1) were tested at 1 mM in triplicates against Plk1 as well as against Abl, Akt1, Aur A, c-Kit, c-Raf, Cdk1/CycB, Chk1, FGFR3, Flt3, Fyn, IGF1-R, INSR, Lyn, MAPK-ERK1, p38a, PAK4, PKCalpha, Ret, ROCK2, RSK 1, c-Src, TIE2, and VEGF-R2.

Plk1 = Plk1 (Homo sapiens, UniProt P53350); assay: Cellular Plk1 kinase activity: nucleophosmin (B23) Ser4 phosphorylation in HCT116 cells (MSD electrochemiluminescence); type: cell-based; parameters: host or cells: HCT116; conditions: 100 ng/ml nocodazole, 4 hours after compound addition, read-out: Biochemical IC50 Nucleophosmin assay
Plk1, sequence (P53350 whole entry, species assumed): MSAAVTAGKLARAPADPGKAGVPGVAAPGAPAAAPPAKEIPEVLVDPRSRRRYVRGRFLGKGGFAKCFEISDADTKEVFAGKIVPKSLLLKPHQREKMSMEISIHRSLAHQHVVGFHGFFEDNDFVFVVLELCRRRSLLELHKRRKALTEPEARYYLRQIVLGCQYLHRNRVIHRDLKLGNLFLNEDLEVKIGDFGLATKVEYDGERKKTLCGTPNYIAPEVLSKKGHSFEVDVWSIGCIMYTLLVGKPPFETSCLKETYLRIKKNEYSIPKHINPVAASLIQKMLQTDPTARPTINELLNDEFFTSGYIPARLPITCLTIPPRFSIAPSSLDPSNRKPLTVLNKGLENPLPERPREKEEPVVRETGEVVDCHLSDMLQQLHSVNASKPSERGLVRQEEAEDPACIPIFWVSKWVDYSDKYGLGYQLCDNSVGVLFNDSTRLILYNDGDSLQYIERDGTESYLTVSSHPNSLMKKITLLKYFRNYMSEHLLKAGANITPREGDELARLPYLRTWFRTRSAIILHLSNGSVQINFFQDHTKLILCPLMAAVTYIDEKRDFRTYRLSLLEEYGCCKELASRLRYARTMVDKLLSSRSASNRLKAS
Description: We observed the surprising finding that compounds of the invention were able to penetrate cell membranes and retained their activity as Plk1 inhibitors against native Plk1 expressed within living cancer cells.
Cellular Plk1 kinase activity was measured by quantification of nucleophosmin (B23) Ser4 phosphorylation in a cancer cell line. Nucleophosmin (B23) Ser4 is phosphorylated by Plk1, and this phosphorylation can be specifically detected by cross-reactivity of a phospho-Mek1/2 antibody that is able to recognizes a mitotic-specific phosphorylated form of nucleophosmin (B23) in a nocodazole dependent way (Zhang, H., Shi, X., Paddon, H., Hampong, M., Dai, W., and Pelech, S. (2004) B23/Nuleophosmin Serin 4 Phosphorylation Mediates Mitotic Functions of Polo-like Kinase 1. J. Biol. Chem., 279(34), 35726-35734).
Briefly, HCT116 cells (ATCC, Order No. CCL-247) were plated in 96 well dishes 24 hours prior to nocodazole treatment at 25 000 cells per well. Cells were then treated with 100 ng/ml nocodazole (Sigma-Aldrich, # M1404). 20 hours after nocodazole treatment, cells were exposed to the test compounds at various concentrations appropriate to determine an IC50. 4 hours after compound addition, medium was carefully removed and 120 µl of Complete Tris Lysis Buffer (R60TX; MSD, Gaithersburg MD) was added to each well. Samples were then stored at -20°C.
The level of nucleophosmin (B23) Ser4 phosphorylation in these cell lysis samples was estimated by electrochemiluminescence detection using the Meso Scale Discovery ("MSD") Technology Platform (MSD, Gaithersburg MD). The protocol used was as recommended by the manufacturer with the use of a phospho-Mek1/2 antibody (Cell Signalling, #9121) as primary antibody, and is as follows.
The cell lysates were thawed at room temperature and 40 µl were incubated on 96-well MULTI-ARRAY High Bind plates (L11XB; MSD) for 1.5 - 2 hours at room temperature. The supernatants were then removed and 150 µl of a 5% (w/v) solution of Blocker A (R93AA; MSD) in Tris Wash Buffer (R61TX; MSD) were added to each well. The plates were then incubated for 1 hour at room temperature before removal of the Blocker A solution and washed 4 times with 200 µl Tris Wash Buffer. 25 µl primary antibody (anti-phospho-MEK1/2, Cell Signalling, #9121, rabbit polyclonal), diluted 1:250 in a 1% (w/v) solution of Blocker A in Tris Wash Buffer, were added to each well. The plates were then incubated for 1 hour at room temperature before removal of the antibody solution and washed 4 times with 200 µl Tris Wash Buffer. Then, 25 µl of labelled secondary antibody (SULFO-TAG Goat Anti-Rabbit IgGAntibody (R32AB; MSD), diluted 1:500 in a 1% (w/v) solution of Blocker A in Tris Wash Buffer) were added to each well. The plates were then incubated for 1 hour at room temperature before removal of the antibody solution and washed 4 times with 200 µl Tris Wash Buffer. Then, […] of 1x Read Buffer T (R92TC; MSD) were carefully added to each well and the plates were quantitatively detected for each well with a SECTOR™ Imager 6000 (MSD).
Inhibitory activity of the compounds (IC) was calculated as % inhibition of nucleophosmin (B23) Ser4 phosphorylation compared to cells not treated with nocodazole.

[2] = HCT-116, 72 h, 72 hours, SRB assay, read-out: CELLULAR IC50 HCT 116
[3] = HT-29, 72 h, 72 hours, SRB assay, read-out: CELLULAR IC50 HT-29
[4] = 72 hours, SRB assay, slow cycling cell line, read-out: CELLULAR IC50 IMR-90

Row | Compound | IC50 (HCT 116; [2]) | IC50 (HT-29; [3]) | IC50 (IMR-90; [4]) | IC50 (Plk1) | other results
1 | CCC1C(=O)N(C)c2cnc(Nc3ccc(C(=O)NC4CCN(C)CC4)cc3OC)nc2N1C1CCCC1 (centres unmarked) [BI 2536, reference compound] |  |  |  |  | IC50 (HCT 116; HCT-116, 18-Cell Line Panel, colon, read-out: IC50 HCT116): < 1000 nM; IC50 (HT-29; HT-29, 18-Cell Line Panel, colon, read-out: IC50 HT-29): < 1000 nM; IC50 (IMR-90; 18-Cell Line Panel, lung, read-out: IC50 IMR-90): > 1000 nM; IC50 (A-431): < 1000 nM; IC50 (A549): < 1000 nM; IC50 (ACHN): < 1000 nM; IC50 (DU 145): < 1000 nM; IC50 MDA-MB-468 (MDA-MB-468): plateau at ∼50%; IC50 (NCI-H460): < 1000 nM; IC50 (OVCAR-3): < 1000 nM; IC50 (PC-3): < 1000 nM; IC50 (SW620): < 1000 nM; IC50 (A-375): < 1000 nM; IC50 (HeLa): < 1000 nM; IC50 (MDA-MB-231): < 1000 nM; IC50 (SK-MEL-28): < 1000 nM; IC50 (SK-MEL-5): < 1000 nM; IC50 (COLO 205): < 1000 nM
2 | CCC1C(=O)N(C)c2cnc(Nc3ccc(C(=O)NC4CCN(C5CCN(Cc6ccccc6)CC5)CC4)cc3OC)nc2N1N(C)C (centres unmarked) [Compound 14, N-(1'-Benzyl-[1,4']bipiperidinyl-4-yl)-4-(8-dimethylamino-7-ethyl-5-methyl-6-oxo-5,6,7,8-tetrahydro-pteridin-2-ylamino)-3-methoxy-benzamide] | < 1000 nM | < 1000 nM | > 1000 nM | < 100 nM | all other kinases were inhibited [1]: less than 10%
3 | CCC1C(=O)N(C)c2cnc(Nc3ccc(C(=O)NC4CCN(C)CC4)cc3OC)nc2N1N(C)Cc1ccccc1 (centres unmarked) [Compound 15, 4-[8-(Benzyl-methyl-amino)-7-ethyl-5-methyl-6-oxo-5,6,7,8-tetrahydro-pteridin-2-ylamino]-3-methoxy-N-(1-methyl-piperidin-4-yl)-benzamide] | < 1000 nM | < 1000 nM | > 1000 nM | < 100 nM | 
4 | CCC1C(=O)N(C)c2cnc(Nc3ccc(C(=O)NCC4CCN(CC)CC4)cc3OC)nc2N1N(C)CC1CCC1 (centres unmarked) [Compound 34, 4-[8-(Cyclobutylmethyl-methyl-amino)-7-ethyl-5-methyl-6-oxo-5,6,7,8-tetrahydro-pteridin-2-ylamino]-N-(1-ethyl-piperidin-4-ylmethyl)-3-methoxy-benzamide] | < 1000 nM | < 1000 nM | > 1000 nM | < 500 nM | 
5 | CCC1C(=O)N(C)c2cnc(Nc3ccc(C(=O)NCC4CCN(CC)CC4)cc3OC)nc2N1N(C)C (centres unmarked) [Compound 3, 4-(8-Dimethylamino-7-ethyl-5-methyl-6-oxo-5,6,7,8-tetrahydro-pteridin-2-ylamino)-N-(1-ethyl-piperidin-4-ylmethyl)-3-methoxy-benzamide] | < 1000 nM | < 1000 nM | > 1000 nM | < 100 nM | 
6 | CCC1C(=O)N(C)c2cnc(Nc3ccc(C(=O)NCC4CCN(CC)CC4)cc3OC)nc2N1N(C)CC(C)C (centres unmarked) [Compound 23, 4-[7-Ethyl-8-(isobutyl-methyl-amino)-5-methyl-6-oxo-5,6,7,8-tetrahydro-pteridin-2-ylamino]-N-(1-ethyl-piperidin-4-ylmethyl)-3-methoxy-benzamide] | < 1000 nM | < 1000 nM | > 1000 nM | < 100 nM | 
7 | CCC1C(=O)N(C)c2cnc(Nc3ccc(C(=O)NC4CCN(C)CC4)cc3OC)nc2N1N(C)CC (centres unmarked) [Compound 25, 4-[7-Ethyl-8-(ethyl-methyl-amino)-5-methyl-6-oxo-5,6,7,8-tetrahydro-pteridin-2-ylamino]-3-methoxy-N-(1-methyl-piperidin-4-yl)-benzamide] | < 1000 nM | < 1000 nM | > 1000 nM | < 100 nM | all other kinases were inhibited [1]: less than 10%

From EP2112152A1, “Dihydropteridinones as Plk Inhibitors” (GPC Biotech AG, priority 2008, dated 2009)
